This is an account of results in article PMC3402509 (Investigational New Drugs, 2011).

A short description of series [1]: Dasatinib pharmacokinetic studies in plasma. The class given is in vivo, patients. The note with it: for Cmax: Cmax Geomean (%CV).
Series [2] relates to SFK PY-416 (P-SFK). The series can be described thus: P-SFK peripheral blood mononuclear cell. It is filed as in vivo, patients. The settings on record: for P-SFK levels in PBMCs compared to same day pre-dasatinib dosing levels: day 15 (with cetuximab).
The subject of series [3] is NSCLC. The settings on record: dasatinib monotherapy, phase II; cited from earlier work.

Read-outs that look alike come from different tables or passages of the source.

On to `Cc1nc(Nc2ncc(C(=O)Nc3c(C)cccc3Cl)s2)cc(N2CCN(CCO)CC2)n1` [dasatinib, N-(2-chloro-6-methyl-phenyl)-2-(6-(4-(2-hydroxyethyl)-piperazin-1-yl)-2-methylpyrimidin-4-ylamino)thiazole-5-carboxamide], for which the “T-HALF Mean (SD)” value is reported as 6.8 (0.1) h in series [1] (100 mg oral, Day 0 (alone), N=3); 6.4 (0.1) h in series [1] (100 mg oral, Day 15 (with cetuximab), N=3); 5.2 (1.0) h in series [1] (150 mg oral, Day 0 (alone), N=18); 5.1 (0.6) h in series [1] (200 mg oral, Day 0 (alone), N=3). This molecule also displayed a half-life in series [1] (human, plasma, po) of 5 to 6 h. For the same molecule, the Cmax in series [1] (human, plasma, po, 100 mg, 100 mg oral, Day 0 (alone), N=3) came out at 101 ng/mL; in series [1] (human, plasma, po, 150 mg, 150 mg oral, Day 0 (alone), N=18), 144 ng/mL; in series [1] (human, plasma, po, 200 mg, 200 mg oral, Day 0 (alone), N=3), 415 ng/mL. Besides, the Tmax was 1 h in series [1] (human, plasma, po, 100 mg, Tmax Med (Min, Max), 100 mg oral, Day 0 (alone), N=3); 1.5 h in series [1] (human, plasma, po, 150 mg, Tmax Med (Min, Max), 150 mg oral, Day 0 (alone), N=18); 1 h in series [1] (human, plasma, po, 200 mg, Tmax Med (Min, Max), 200 mg oral, Day 0 (alone), N=3); 1 to 2 h in series [1] (human, plasma, po, Tmax, text summary over dose levels). Also, the “PK parameters (AUC and T-HALF) given alone (day 0) versus in combination with cetuximab (day 15)” value in series [1] (in vivo) was “comparable”. The “P-SFK levels in PBMCs compared to baseline” value in series [2] (day 0, 4 hours following dasatinib dosing) was “tended to be reduced”; in series [2] (day 0, 8 hours following dasatinib dosing) it was “significantly reduced”; in series [2] (day 0, 24 hours following dasatinib dosing), “did not differ from baseline levels”. For the same molecule, the “P-SFK levels in PBMCs compared to same day pre-dasatinib dosing levels” value is listed as “significantly decreased” in series [2] (8 hours, P=0.03) and “did not differ from pre-dasatinib dosing levels” in series [2] (24 hours, P=0.18). Moreover, the “DLT (patients)” value was “None” (dose level 1, dasatinib 100 mg once daily plus weekly cetuximab, 3 (3) patients (evaluable)); 1 (dose level 2, dasatinib 150 mg once daily plus weekly cetuximab, 19 (14) patients (evaluable)); 1 (Headache) (dose level 2, dasatinib 150 mg once daily plus weekly cetuximab, 19 (14) patients (evaluable), listed as Dasatinib); 2 (dose level 3, dasatinib 200 mg once daily plus weekly cetuximab, 3 (2) patients (evaluable)). In series [3], the “patients with either a partial response or SD” value is 43%.

For orientation: half-life means the time needed for the level to fall by half in the phase considered. A higher half-life goes with slow decline. One may read the Cmax as the maximum level reached in the sampled fluid or tissue. In general, Tmax refers to the time at which the peak concentration occurs.
